Laboratory results reported in PMC9727182, “Identification of pharmacokinetic markers for safflower injection using a combination of system pharmacology, multicomponent pharmacokinetics, and quantitative proteomics study” (Frontiers in Pharmacology, 2022).
Values joined by “and” are separate entries in the source; they are usually repeats but may differ in a detail not shown here. Equal entries are not always repeated.

Experiments:
[1] = test system: H9c2 cardiomyocytes injured by H2O2; experiment: Protection of cardiomyocytes injured by H2O2 (MTT); type: cell-based; details: for cell viability vs. model group: pretreated 24 h, 250 μM H2O2 2 h
Procedure: H9c2 cardiomyocytes obtained from Cell Bank of the Chinese Academy of Sciences (Shanghai, China) were cultured in DMEM (high glucose) supplemented with 1% P/S and 15% FBS in 5% CO2 at 37°C. The cells were collected with 0.25% trypsin, followed by re-seeding in 96-well multiplates with a density of 5×10^3 cells per well. The cell experiments were grouped as follows: normal group, model group (H2O2), administration groups and positive control groups (N-Acetyl-L-cysteine, NAC). […] After that, cells were incubated with 0.5 mg/ml of MTT for 4 h under standard condition, followed by addition of 150 µl DMSO into every well. The cell supernatants were finally removed and the optical density (OD) was recorded at 570 nm using a microplate reader (Thermo Fisher Scientific, United States). The protection rate of the compounds on H9c2 cardiomyocytes was calculated as (OD valueadministration group (or NAC group)-OD valuemodel group)/(OD valuenormal group-OD valuemodel group) ×100%.

[2] = test system: H9c2 cardiomyocytes injured by H2O2; experiment: TMT quantitative proteomics of H2O2-injured cardiomyocytes; type: cell-based; details: 168 μM
Procedure: The procedures for cell culture, group and administration are similar to those in “2.7. […] Briefly, the difference is that H9c2 cells were seeded and cultured in a culture flask with a bottom area of 25 cm^2 with a density 1×10^5 cells/ml. After treatment, about 3×10^7 cells per group were collected for the next quantitative proteomics investigation, which was done by Jingjie PTM Biolabs (Hangzhou, China). All the procedures for quantitative proteomics can be found in the section of “5. Quantitative proteomics” of the Supplementary Material.
The quantitative proteomics study was carried out according to our previous report ([Li et al., 2022]). Relative quantitative values of proteins in two samples were compared via t-test. […] The identified difference proteins between groups were subjected further to principal component analysis (PCA). […] The subcellular structure location was analyzed using these proteins as objectives.

[3] = Multicomponent pharmacokinetics in rat plasma after i.v. safflower injection (SI); details: for AUC(0-inf) / AUC(0-t) / Cmax / MRT inf / MRT last / Vd / clearance / half-life: male, Sprague-Dawley, rat, in vivo, iv
Procedure: The animal experiments were approved by the Animal Care and Use Committee of the College of Animal Science (College of Bee Science), Fujian Agriculture and Forestry University (Approval Number: PZCASFAFU21012). 250 ± 20 g of male Sprague-Dawley (SD) rats were provided by Lab Animal Center in Fujian Medical University (Fuzhou, China).
Ten rats were divided into three groups (Low dose group, n = 4; medium and high groups, n = 3, respectively). […] For each rat, 2 ml of physiological saline was supplemented after 30 min sampling via intraperitoneal injection. The plasma samples were obtained by centrifugation at 3,000 rpm for 10 min and stored at −20°C until analysis.
Clear supernatant (5 μl) was injected into HPLC-MS for bioanalysis.
The sample was separated on a RD-C18 column (4.6 mm × 50 mm, 3.5 μm, Zhongpu Develop, China). The mobile phase incudes water with 0.1% acetic acid (A) and acetonitrile (B). […] The column temperature, flow rate and injection volume were set at 30°C, 0.5 ml/min and 5 μl, respectively.
Non-compartmental model was used to calculate the PK parameters by DAS 3.0 software (Chinese Pharmacologic Society, Beijing, China). A single-tailed t-test was carried out in the study.

[4] = Stability of 6 compounds of SI in rat plasma; details: for 10h in auto-sampler vials RE: extracted rat plasma; for 6h at room temperature RE / Freeze-thaw stability (three cycles) RE / Long-term stability (-80℃,15 days) RE: rat plasma
Excerpt: The LC-MS method was validated by linearity, limits of detection (LOD), limits of quantification (LOQ), precision, accuracy, extraction recovery, matrix effect and stability of the 6 ingredients in rat plasma. Calibration curves were plotted using weighted linear regression of the peak area ratio of analyte to the IS against the corresponding nominal concentration of the analyte. LOD and LOQ were defined as the detectable concentration at which the ratio of signal to noise was more than 3 and 10, respectively. Intra- and inter-day accuracy and precision were assessed by detecting quality control (QC) samples using five replicates of rat samples at three concentration levels on one or three validation days, respectively. Accuracy and precision were expressed by relative error (RE) and relative standard deviation (RSD), respectively. The extraction recovery and matrix effect of the 6 components at above-mentioned three concentration levels were determined. Stability was assessed under the condition of placing un-treated plasma samples at room temperature for 6 h, and extracted plasma samples in auto-sampler for 10 h, as well as placing plasma samples within freeze-thaw three cycles and at −80 °C for 15 days.

[5] = Stability in diluted SI at room temperature; details: analyzed at 0, 2, 4, 8, 12, 24, and 48 h

With COc1cc(/C=C/CO)cc(OC)c1O[C@@H]1O[C@H](CO)[C@@H](O)[C@H](O)[C@H]1O [SYR, syringin] the “cell viability vs. model group” value ([1]; 5 μM) was “higher cell viability than the model group”, the “cell viability vs. model group” value ([1]; 10 μM) was “higher cell viability than the model group” and the “anti-H2O2 injury effect (protection rate)” value ([1]; 1, 5 and 10 μM) was “concentration-dependent”. For the same molecule, the “proteins downregulated vs. M group” value ([2]; fold change ≤1/1.5, p <0.05) was 231 proteins, the “proteins upregulated vs. M group” value ([2]; fold change ≥1.5, p <0.05) was 131 proteins and the KEGG pathway regulation ([2]; vs. M group) was “downregulated the ribosome pathway and upregulated the lysosome pathway”. The “changed protein expression located at the cytoplasm” value ([2]; vs. M group) was 42.54%, the “changed protein expression located at the nucleus” value ([2]; vs. M group) was 30.39% and the “detection in rat plasma” value ([3]; 1 h after administration (2 ml/kg of SI), preliminary test) was “can be detected”. The “systematic exposure of SYR lower than that of HSYA” value ([3]; after administration of SI) was “over 10 times”, the AUC(0-inf) ([3]; 1 ml/kg) was 116 ± 70.5 ng·h/mL and the AUC(0-t) ([3]; 1 ml/kg) was 101 ± 57.4 ng·h/mL. The Cmax ([3]; 1 ml/kg) was 260 ± 59.4 ng/mL, the MRT inf ([3]; 1 ml/kg) was 22.8 ± 9.6 min and the MRT last ([3]; 1 ml/kg) was 16.2 ± 6 min. It also gave a Vd ([3]; 1 ml/kg) of 0.21 ± 0.07 L/kg, a clearance ([3]; 1 ml/kg) of 11.5 mL/min/kg and a half-life ([3]; 1 ml/kg) of 15 ± 5.4 min. For the same molecule, the AUC(0-inf) ([3]; 2 ml/kg) was 368 ± 78.7 ng·h/mL, the AUC(0-t) ([3]; 2 ml/kg) was 363 ± 81.5 ng·h/mL and the Cmax ([3]; 2 ml/kg) was 465 ± 42.9 ng/mL. For the same molecule, the MRT inf ([3]; 2 ml/kg) was 45 ± 8.4 min, the MRT last ([3]; 2 ml/kg) was 41.4 ± 4.2 min and the Vd ([3]; 2 ml/kg) was 0.31 ± 0.2 L/kg. The clearance ([3]; 2 ml/kg) was 5.67 mL/min/kg, the half-life ([3]; 2 ml/kg) was 36.6 ± 15 min and the AUC(0-inf) ([3]; 4 ml/kg) was 592 ± 96.6 ng·h/mL. It also gave an AUC(0-t) ([3]; 4 ml/kg) of 586 ± 94.4 ng·h/mL, a Cmax ([3]; 4 ml/kg) of 925 ± 38.5 ng/mL and an MRT inf ([3]; 4 ml/kg) of 42.6 ± 13.8 min. The MRT last ([3]; 4 ml/kg) was 40.2 ± 12.6 min, the Vd ([3]; 4 ml/kg) was 0.31 ± 0.11 L/kg and the clearance ([3]; 4 ml/kg) was 6.83 mL/min/kg. The half-life ([3]; 4 ml/kg) was 31.8 ± 13.8 min, the “detected mean maximum plasma concentration” value ([3]; rats, after administration of 4 ml/kg of SI) was 0.93 μg/mL and 2.5 μM and the “10h in auto-sampler vials RE” value ([4]; spiked 40 ng/mL) was -12.50%. The “10h in auto-sampler vials RE” value ([4]; spiked 400 ng/mL) was 1.61%, the “10h in auto-sampler vials RE” value ([4]; spiked 10000 ng/mL) was 1.41% and the “6h at room temperature RE” value ([4]; spiked 40 ng/mL) was -2.50%. For the same molecule, the “Freeze-thaw stability (three cycles) RE” value ([4]; spiked 40 ng/mL) was 1.50%, the “Long-term stability (-80℃,15 days) RE” value ([4]; spiked 40 ng/mL) was -9.50% and the “6h at room temperature RE” value ([4]; spiked 400 ng/mL) was 3.65%. The “Freeze-thaw stability (three cycles) RE” value ([4]; spiked 400 ng/mL) was 2.65%, the “Long-term stability (-80℃,15 days) RE” value ([4]; spiked 400 ng/mL) was 0.30% and the “6h at room temperature RE” value ([4]; spiked 10000 ng/mL) was 1.55%. The “Freeze-thaw stability (three cycles) RE” value ([4]; spiked 10000 ng/mL) was 2.30%, the “Long-term stability (-80℃,15 days) RE” value ([4]; spiked 10000 ng/mL) was 0.98% and the “Stability RSD” value [5] was 2.76%.
